{"source": "paper PMC9603750", "about": "“Chalcone-Acridine Hybrid Suppresses Melanoma Cell Progression via G2/M Cell Cycle Arrest, DNA Damage, Apoptosis, and Modulation of MAP Kinases Activity” (International Journal of Molecular Sciences, 2022)", "key": {"[1]": {"tested_on": "MCF-10A", "assay": "MTT assay (metabolic activity)", "assay_type": "cell-based", "conditions": "Homo sapiens; MCF-10A noncancer cell line, 72 h incubation", "method": "Cell lines A2058 (human melanoma lymph node metastasis, cat. 91100402) from ECACC (Public Health England, Salisbury, UK) and BLM (human melanoma lung metastasis a gift from prof. K. Smetana, Institute of Anatomy, Charles University in Prague) were cultured in a medium consisting of high glucose Dulbecco’s Modified Eagle’s Medium (DMEM) and sodium pyruvate (GE Healthcare, Piscataway, NJ, USA). The growth medium was supplemented with a 10% fetal bovine serum (FBS) and antibiotic/antimycotic solution 1 × HyClone™ (GE Healthcare, Chicago, IL, USA). The MCF-10A (human mammary epithelial cells) cell line was cultured in a medium consisting of high glucose Dulbecco’s Modified Eagle’s Medium F12 (DMEM/F12) (Biosera, Kansas City, MO, USA). The growth medium was supplemented with a 10% FBS, antibiotic/antimycotic solution 1 × HyClone™ (GE Healthcare, Chicago, IL, USA), epidermal growth factor (EGF) (20 ng/mL final), hydrocortisone (0.5 μg/mL final) and insulin (10 μg/mL final) (Sigma-Aldrich Chemie, Steinheim, Germany). Cells were cultured in humidified air at 37 °C with atmosphere containing 5% CO2.\nThe half-maximal inhibitory concentration values (IC50) and metabolism inhibition of tested synthetic chalcone derivatives were determined by MTT (3-(4,5-di-methylthiazol-2-yl)2,5-diphenyltetrazolium bromide) colorimetric assay (Sigma-Aldrich Chemie, Steinheim, Germany). Tested cell lines were seeded at a density of 5 × 10^3 cells/well in 96-well culture plates. After 24 h, the tested chalcones in concentrations of 100, 50 and 10 μmol/L were added and incubation proceeded for the next 72 h. In the next step, 10 μL of MTT (5 mg/mL) was added to each well containing cells and incubated for another 4 h at 37 °C during which MTT was metabolized to insoluble formazan in cells. After 4 h, 100 μL of a 10% sodium dodecyl sulphate (SDS) was added to each well and another 24 h were allowed for the formazan crystals to dissolve. The metabolic activity of cells was evaluated by measuring the absorbance at wavelength 540 nm using the automated Cytation™ 3 Cell Imaging Multi-Mode Reader (Biotek, Winooski, VT, USA). Three independent analyses were performed."}, "[2]": {"tested_on": "A2058 melanoma cells", "assay": "Cell cycle analysis by flow cytometry (PI)", "assay_type": "cell-based, human", "conditions": "A2058, 1C 10 μmol/L", "method": "(§1) The A2058 and BLM melanoma cells were seeded at a density of 1 × 10^5/dish in a Petri dish. Twenty-four hours after incubation, A2058 cells were treated with chalcone 1C at 10 μmol/L concentration, BLM cells at 20 μmol/L concentration and both melanoma cell lines were treated with DMSO as the negative control at the same concentrations. For flow cytometric analysis of the cell cycle, adherent and floating A2058 and BLM melanoma cells were harvested in three different times (24, 48 and 72 h) after treatment with chalcone 1C and DMSO, washed in cold washing buffer (PBS), fixed in cold 70% ethanol and stored at −20 °C at least overnight. Prior to analysis, cells were washed with PBS, resuspended in staining solution (Triton X-100 final concentration 0.1%, ribonuclease A final concentration 0.5 mg/mL and propidium iodide final concentration 0.025 mg/mL, all Sigma), and incubated for 30 min in the dark at room temperature. Stained melanoma cells were analysed using a BD FACSCalibur^TM Flow Cytometer (Becton Dickinson, San Jose, CA, USA). Three independent analyses were performed."}, "[3]": {"tested_on": "BLM melanoma cells", "assay": "Cell cycle analysis by flow cytometry (PI)", "assay_type": "cell-based, human", "conditions": "1C 20 μmol/L", "method": "as §1"}, "[4]": {"tested_on": "A2058 melanoma cells", "assay": "Flow cytometric analysis of caspase-3/7 activity", "assay_type": "cell-based, human", "conditions": "A2058, 1C 10 μmol/L, 24, 48 and 72 h", "method": "(§2) The A2058 and BLM melanoma cells were seeded 1 × 10^6 in Petri dishes with complete growth medium and cultivated for 24 h. After cell cultivation, the A2058 cells were treated with chalcone 1C at 10 μmol/L concentration, BLM cells at 20 μmol/L concentration and both melanoma cell lines were treated with DMSO as the negative control at the same concentrations for 24, 48 and 72 h. Adherent and floating cells were harvested, pelleted by centrifugation at 1200 rpm for 5 min. Pellets were resuspended in washing buffer (PBS) and divided for a particular analysis. Afterwards, cells were prepared according to assay kit protocols or fixed with cold 4% paraformaldehyde (15 min) and permeabilized with 90% methanol (10 min on ice) with washing steps (PBS) and stained prior to analysis (Table 5) for 15 min in the dark at room temperature. Fluorescence was detected using a BD FACSCalibur^TM Flow Cytometer (Becton Dickinson, San Jose, CA, USA)."}, "[5]": {"tested_on": "BLM melanoma cells", "assay": "Flow cytometric analysis of caspase-3/7 activity", "assay_type": "cell-based, human", "conditions": "1C 20 μmol/L, 24, 48 and 72 h", "method": "as §2"}, "[6]": {"tested_on": "A2058 melanoma cells", "assay": "Flow cytometric analysis of DNA damage (ATM, SMC1, H2A.X phosphorylation)", "assay_type": "cell-based, human", "method": "as §2"}, "[7]": {"tested_on": "BLM melanoma cells", "assay": "Flow cytometric analysis of DNA damage (ATM, SMC1, H2A.X phosphorylation)", "assay_type": "cell-based, human", "method": "as §2"}, "[8]": {"conditions": "A2058, 1C 10 μmol/L, 24, 48 and 72 h"}}}
{"smiles": "COc1cccc(OC)c1C(=O)/C=C/c1c2ccccc2nc2ccccc12", "note": "[Compound 1C, (2E)-3-(acridin-9-yl)-1-(2,6-dimethoxyphenyl)prop-2-en-1-one]", "values": [{"measurement": "IC50", "setting": "[1]", "result": "36.5 ± 0.87", "unit": "µM"}, {"measurement": "G1", "setting": "[2]; 24 h", "result": "34.67 ± 4.92"}, {"measurement": "G2/M", "setting": "[2]; 24 h", "result": "52.23 ± 7.03"}, {"measurement": "S", "setting": "[2]; 24 h", "result": "11.79 ± 1.51"}, {"measurement": "subG0", "setting": "[2]; 24 h", "result": "1.30 ± 1.11"}, {"measurement": "G1", "setting": "[2]; 48 h", "result": "24.60 ± 11.45"}, {"measurement": "G2/M", "setting": "[2]; 48 h", "result": "59.73 ± 12.23"}, {"measurement": "S", "setting": "[2]; 48 h", "result": "8.12 ± 1.15"}, {"measurement": "subG0", "setting": "[2]; 48 h", "result": "7.54 ± 3.73"}, {"measurement": "G1", "setting": "[2]; 72 h", "result": "18.67 ± 8.56"}, {"measurement": "G2/M", "setting": "[2]; 72 h", "result": "60.37 ± 4.42"}, {"measurement": "S", "setting": "[2]; 72 h", "result": "8.85 ± 2.70"}, {"measurement": "subG0", "setting": "[2]; 72 h", "result": "12.12 ± 5.84"}, {"measurement": "G1", "setting": "[3]; 24 h", "result": "19.35 ± 1.43"}, {"measurement": "G2/M", "setting": "[3]; 24 h", "result": "63.25 ± 0.45"}, {"measurement": "S", "setting": "[3]; 24 h", "result": "9.19 ± 0.28"}, {"measurement": "subG0", "setting": "[3]; 24 h", "result": "8.22 ± 1.62"}, {"measurement": "G1", "setting": "[3]; 48 h", "result": "11.65 ± 0.69"}, {"measurement": "G2/M", "setting": "[3]; 48 h", "result": "54.95 ± 0.45"}, {"measurement": "S", "setting": "[3]; 48 h", "result": "16.35 ± 0.20"}, {"measurement": "subG0", "setting": "[3]; 48 h", "result": "17.05 ± 0.45"}, {"measurement": "G1", "setting": "[3]; 72 h", "result": "13.85 ± 1.18"}, {"measurement": "G2/M", "setting": "[3]; 72 h", "result": "29.25 ± 0.04"}, {"measurement": "S", "setting": "[3]; 72 h", "result": "32.60 ± 2.69"}, {"measurement": "subG0", "setting": "[3]; 72 h", "result": "24.30 ± 3.84"}, {"measurement": "Caspase-3/7 activity in apoptotic cells", "setting": "[4]", "result": "significant activity"}, {"measurement": "Caspase-3/7 activity in apoptotic cells", "setting": "[5]", "result": "significant activity"}, {"measurement": "Phosphorylation of H2A.X", "setting": "[6]; [8]", "result": "significantly induced"}, {"measurement": "Phosphorylation of SMC1", "setting": "[6]; [8]", "result": "significant phosphorylation"}, {"measurement": "Phosphorylation of ATM", "setting": "[6]; A2058, 1C 10 μmol/L, time-dependent (24, 48 and 72 h)", "result": "significantly induced"}, {"measurement": "Phosphorylation of H2A.X", "setting": "[7]; 1C 20 μmol/L, 24, 48 and 72 h", "result": "significantly induced"}, {"measurement": "Phosphorylation of SMC1", "setting": "[7]; 1C 20 μmol/L, 24, 48 and 72 h", "result": "significant phosphorylation"}, {"measurement": "Phosphorylation of ATM", "setting": "[7]; 1C 20 μmol/L, time-dependent (24, 48 and 72 h)", "result": "significantly induced"}]}
